Earlier results on one compound are cited in patent US12059317B2, “Multi-phase oral care compositions” (The Procter & Gamble Company, priority 2019, dated 2024).

Read-outs that look alike come from different tables or passages of the source.

For this data set the following is noted: for Solubility in Water (number of parts by weight per 100 parts by weight of water): hydrophilic bleaching agent particle of the composition, PVP complex value estimated from supplier data sheet on PVP K-30.

`NC(N)=O.OO` [Urea Peroxide, Urea Hydrogen Peroxide Adduct]: the “Solubility in Water (number of parts by weight per 100 parts by weight of water)” value is 80 parts by weight per 100 parts by weight of water. Where the note is “at 20 C, per Safety Data Sheet from supplier”, the Solubility in water is on record as 800 grams per liter. For the same compound, the Solubility in water (footnote values from supplier data sheets / Wikipedia) is listed as 80 parts per 100 parts of water. Besides, where the note is “listed as urea peroxide”, the “Solubility in Water (number of parts by weight per 100 parts by weight of water)” value is 80 parts by weight per 100 parts.
